Columns and labels:
[1] = test system: normal keratinocyte (HaCaT) cells; experiment: cell viability screen in noncancerous HaCaT cells; assay type: cell-based
Excerpt: FIGS. 14A-14C depict cell viability screen of PPA24, PPA27, iHAP1, and NSC49L in normal keratinocyte (HaCaT) (FIG. 14A) and epithelial (FHC) (FIG. 14B) cells, where the compounds were able to showcase selectivity to cancerous cells vs. noncancerous cells. FIG. 14C depicts IC50 concentrations of the compounds in the cells. Analyses were done using GraphPad Prism 7.0 Software.
The compounds PPA24, PPA27, iHAP1, and NSC49L were screened in noncancerous cell lines to observe the selectivity these compounds have towards cancerous cells by assessing the differences in IC50 concentrations.

PP2ACα = PP2ACα (Homo sapiens, UniProt P67775); experiment: surface plasmon resonance (SPR) binding to catalytic subunit PP2ACα; settings: no KD could be calculated
PP2ACα, sequence (P67775 whole entry): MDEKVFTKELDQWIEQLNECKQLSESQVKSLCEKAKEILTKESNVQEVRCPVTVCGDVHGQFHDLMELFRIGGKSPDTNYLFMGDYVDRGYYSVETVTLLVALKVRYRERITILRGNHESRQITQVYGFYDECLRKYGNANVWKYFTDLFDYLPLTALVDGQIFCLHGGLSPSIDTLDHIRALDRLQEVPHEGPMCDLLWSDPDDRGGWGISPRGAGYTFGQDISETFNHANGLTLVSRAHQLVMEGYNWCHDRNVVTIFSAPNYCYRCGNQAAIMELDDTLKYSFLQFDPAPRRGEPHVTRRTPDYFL
Excerpt: FIGS. 12A-12E depict surface plasmon resonance (SPR) analysis of the binding of PPA24, PPA27, and NSC49L to catalytic subunit, PP2ACα. FIG. 12A depicts surface plasmon resonance (SPR) studies of PPA24 binding to PP2ACα. FIG. 12B depicts surface plasmon resonance (SPR) studies of PPA27 binding to PP2ACα. FIG. 12C depicts the dissociation constant (KD) of PPA24 binding to PP2ACα. FIG. 12D depicts the dissociation constant (KD) of PPA27 binding to PP2ACα. FIG. 12E depicts surface plasmon resonance (SPR) studies of 100 μM of NSC49L binding to PP2ACα.
Thus, the binding affinity can be in the order of PPA24>PPA27>NSC49L>iHAP1.

SMILES	selectivity: cell viability in HaCaT cells versus CRC cells [1]	SPR binding signal to PP2ACα (PP2ACα)
ClC/C=C/C[N+]12CN3CN(CN(C3)C1)C2.[Cl-] [NSC49L]	some selectivity towards cancerous cells	only had a binding signal at 100 μM
COc1ccc(C(=O)N2c3ccccc3Sc3ccc(Cl)cc32)cc1 [iHAP1]	do not appear to have a significant difference	did not show a clear signal even at high concentrations
